Data taken from patent US20150051202A1, “TRIAZOLOPYRAZINE DERIVATIVES” (Merck Patent GmbH, priority 2012, published 2015).

What was measured:
SYK = biological target: T1, SYK (Homo sapiens, UniProt P43405); test: SYK enzyme assay (Flash plate assay / Caliper mobility shift assay); assay type: biochemical
T1 construct: purchased BPS Bioscience, CA, USA
Procedure: The kinase assay is performed either as 384-well Flashplate assay (for e.g. Topcount measurement) or as 384-well Image-Flashplate assay (for LEADseeker measurement).
2.5 nM SYK, 400 nM Biotin-Aha-Aha-[…]
and 10 μM ATP (spiked with 0.3 μCi 33P-ATP/well) are incubated in a total volume of 50 μl (60 mM Hepes, 10 mM MgCl2, 1.2 mM Dithiothreitol, 0.02% Brij35, 0.1% BSA, pH 7.5) with or without test compound for 1 hours at 30° C. The reaction is stopped with 25 μl 200 mM EDTA. After 30 Min at 30° C. the liquid is removed and each well washed thrice with 100 μl 0.9% sodium chloride solution. Non-specific reaction is determined in presence of 0.1 μM Staurosporine. Radioactivity is measured with Topcount (when using Flashplates) or with LEADseeker (when using Image-Flashplates) respectively. Results (e.g. IC50-values) are calculated with program tools provided by the IT-department (e.g. Symyx Assay Explorer, Genedata Screener).
Enzymatic Assays Using the Caliper LifeSciences Technology
The assays described here are performed on the Caliper Life Sciences LC3000 system This technology provides data on enzyme activity via measurement of the relative amounts of phosphorylated or unphosphorylated fluorescently labelled substrate peptide at the end of an enzymatic reaction.
These different states of peptide are resolved by applying a potential difference across the sample. The presence of the charged phosphate group on the product (as opposed to the substrate) causes a different peptide mobility between the two peptides. This is visualized by excitation of the fluorescent label on the substrate and product peptides and represented as peaks within the analysis software.
In order to measure inhibitor activity of kinase inhibitors on this technology, a TTP Mosquito liquid handling instrument is used to place 0.25 ul of the appropriate concentration of inhibitor in 100% DMSO (for a dose response curve calculation) into each well of a 384-well plate. To this reaction components are added to a final volume of 25 ul. The table below indicates the sequences and concentrations for the assays described in this report. Standard components are 1 mM DTT (Sigma, D0632), 1 mM MgCl2 (Sigma, M1028), 100 mM HEPES pH 7.5 (Calbiochem, 391338), 0.015% Brij-35 (Sigma, B4184).
The reaction is incubated for 90 min at 25 C, and then stopped by the addition of 70 ul of Stop buffer (100 mM HEPES pH 7.5, 0.015% Brij-35, 10 mM EDTA (Sigma, E7889)).
The plate is read on a Caliper LC 3000 in an Off-Chip mobility shift assay format, on a 12-sipper chip. Unphosphorylated substrate and phosphorylated product peptide resolve as separate peaks allowing direct measurement of percentage of conversion of substrate to product. The percent conversion can be plotted against concentration of inhibitor to produce a sigmoidal dose response curve, from which an IC50 can be calculated using GeneData Condoseo or a similar product.

GCN2 = GCN2 (Homo sapiens, UniProt Q9P2K8); test: GCN2 enzyme assay (TR-FRET Lanthascreen, GFP-eIF2alpha substrate); assay type: biochemical
Sequence of GCN2 (Q9P2K8 whole entry): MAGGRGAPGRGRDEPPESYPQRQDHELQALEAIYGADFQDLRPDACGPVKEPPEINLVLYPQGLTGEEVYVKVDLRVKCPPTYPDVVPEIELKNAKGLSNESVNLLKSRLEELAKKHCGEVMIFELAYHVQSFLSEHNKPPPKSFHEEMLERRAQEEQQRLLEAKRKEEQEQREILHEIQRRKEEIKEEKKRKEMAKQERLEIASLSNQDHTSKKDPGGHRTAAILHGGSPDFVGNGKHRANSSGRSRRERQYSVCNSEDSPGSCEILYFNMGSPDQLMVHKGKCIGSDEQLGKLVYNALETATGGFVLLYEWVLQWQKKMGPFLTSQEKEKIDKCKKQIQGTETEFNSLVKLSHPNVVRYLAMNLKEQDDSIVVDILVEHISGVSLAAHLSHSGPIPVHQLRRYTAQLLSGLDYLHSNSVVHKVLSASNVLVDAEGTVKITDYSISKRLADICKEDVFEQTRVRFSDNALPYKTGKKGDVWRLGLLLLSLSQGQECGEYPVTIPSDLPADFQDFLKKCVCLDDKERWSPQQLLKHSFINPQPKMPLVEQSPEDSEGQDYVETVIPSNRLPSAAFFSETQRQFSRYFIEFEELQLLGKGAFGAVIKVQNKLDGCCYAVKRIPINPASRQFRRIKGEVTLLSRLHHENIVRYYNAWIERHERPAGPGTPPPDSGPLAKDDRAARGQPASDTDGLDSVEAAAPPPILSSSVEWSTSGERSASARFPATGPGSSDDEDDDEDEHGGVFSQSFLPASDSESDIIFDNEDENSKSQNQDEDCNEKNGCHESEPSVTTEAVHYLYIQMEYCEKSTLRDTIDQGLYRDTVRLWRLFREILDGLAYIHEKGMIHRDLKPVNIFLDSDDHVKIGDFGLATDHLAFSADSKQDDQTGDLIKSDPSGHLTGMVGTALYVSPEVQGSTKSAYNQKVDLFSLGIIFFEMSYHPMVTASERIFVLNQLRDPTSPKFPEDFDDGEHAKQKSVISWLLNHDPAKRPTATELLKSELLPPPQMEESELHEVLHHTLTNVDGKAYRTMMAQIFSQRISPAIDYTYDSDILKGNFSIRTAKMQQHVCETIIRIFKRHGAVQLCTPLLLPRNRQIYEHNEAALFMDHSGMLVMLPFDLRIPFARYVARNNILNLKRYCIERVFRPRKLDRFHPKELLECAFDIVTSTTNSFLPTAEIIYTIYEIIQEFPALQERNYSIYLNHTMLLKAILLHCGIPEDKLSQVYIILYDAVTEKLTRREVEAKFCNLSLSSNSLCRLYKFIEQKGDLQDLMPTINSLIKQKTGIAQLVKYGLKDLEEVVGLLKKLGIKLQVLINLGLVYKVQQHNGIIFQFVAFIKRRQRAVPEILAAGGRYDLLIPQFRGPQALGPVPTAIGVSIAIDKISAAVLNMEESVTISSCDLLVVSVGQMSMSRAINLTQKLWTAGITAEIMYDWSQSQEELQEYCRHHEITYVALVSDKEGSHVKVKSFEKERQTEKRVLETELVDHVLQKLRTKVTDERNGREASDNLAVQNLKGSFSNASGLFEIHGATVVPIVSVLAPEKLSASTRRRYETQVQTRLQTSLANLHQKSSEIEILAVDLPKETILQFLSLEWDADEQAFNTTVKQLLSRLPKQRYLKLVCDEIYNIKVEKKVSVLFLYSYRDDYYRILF
From the text: GCN2: Assay Principle & Conditions
This assay can quantificate the activity of the serin kinase GCN2 (general control non-derepressible-2).
This kinase is involved in the stress metabolism of cells. It is activated upon starvation (amino acid depletion). Its natural substrate is eIF2a (eukaryotic initiation factor 2 alpha subunit), a translation factor, which gets activated (phosphorylated) by GCN2 in case of an amino acid bottleneck in the cells. This in turn leads to a halt of the protein synthesis. Inhibition of GCN2 results in stopping this mechanism: The cell can not stop protein production upon “starvation” stress.
The assay is run in two steps: the enzymatic reaction and the detection step. In the first step GCN2 is incubated with 10 μM ATP and 80 nM of the GFP-labelled substrate eIF2alpha at room temperature.
The enzymatic reaction is stopped by addition of EDTA. The amount of phosphorylated eIF2alpha is determined by TR-FRET (Lanthascreen): A complex is formed consisting of antibody and GFP labelled phospho-eIF2a, which allows a FRET upon exitation at 340 nm.
Final Concentrations in the Enzymatic Reaction • Hepes, pH 7.0 50 mM • MgCl2 10 mM • MnCl2 5 mM • BSA 0.1% • DMSO 1% • ATP 10 uM • DTT 2 mM • GFP-eIF2a 80 nM (substrate) • GCN2 30 nM (enzyme)

[1] = 100% corresponds to zero effect, −50% corresponds to IC50

Row | Compound | SYK (enzyme assay) % at 3 μM (SYK; [1]) | IC50 (GCN2) | IC50 (SYK) | SYK (enzyme assay) % at 0.3 μM (SYK; at 0.3 μM, 100% corresponds to zero effect, −50% corresponds to IC50)
1 | CN1CCN(c2ccc(Nc3nc4cncc(Nc5cnn(C)c5)n4n3)cc2)CC1 [Compound A53, N2-[4-(4-methyl-piperazin-1-yl)-phenyl]-N5-(1-methyl-1H-pyrazol-4-yl)-[1,2,4] triazolo[1,5-a]pyrazine-2,5-diamine] | −23@3% | 1000 to 5000 nM | – | –
2 | Cc1ccc(-c2cncc3nc(Nc4ccc(N5CCOCC5)cc4)nn23)o1 [Compound A55, [5-(5-methyl-furan-2-yl)-[1,2,4]triazolo[1,5-a]pyrazin-2-yl]-(4-morpholin-4-yl-phenyl)-amine] | – | < 1000 nM | < 1000 nM | –
3 | c1cc(N2CCOCC2)ccc1Nc1nc2cncc(-c3cnn(CCN4CCOCC4)c3)n2n1 [Compound A56, {5-[1-(2-morpholin-4-yl-ethyl)-1H-pyrazol-4-yl]-[1,2,4]triazolo[1,5-a]pyrazin-2-yl}-(4-morpholin-4-yl-phenyl)-amine] | – | 1000 to 5000 nM | 1000 to 5000 nM | –
4 | Cn1cc(-c2cncc3nc(Nc4cccc(C#N)c4)nn23)cn1 [Compound A57, 3-[5-(1-methyl-1H-pyrazol-4-yl)-[1,2,4]triazolo[1,5-a]pyrazin-2-ylamino]-benzonitrile] | – | 1000 to 5000 nM | 5000 to 10000 nM | –
5 | O=C1Cc2cc(Nc3nc4cncc(-c5ccc(CN6CCOCC6)s5)n4n3)ccc2N1 [Compound A58, 5-[5-(5-morpholin-4-ylmethyl-thiophen-2-yl)-[1,2,4]triazolo[1,5-a]pyrazin-2-ylamino]-1,3-dihydro-indol-2-one] | −34@3% | < 1000 nM | – | –
6 | Cn1cc(-c2cncc3nc(Nc4ccc5c(c4)OCCO5)nn23)cn1 [Compound A59, (2,3-dihydro-benzo[1,4]dioxin-6-yl)-[5-(1-methyl-1H-pyrazol-4-yl)-[1,2,4]triazolo[1,5-a]pyrazin-2-yl]-amine] | – | < 1000 nM | 1000 to 5000 nM | –
7 | Cn1cc(-c2cncc3nc(Nc4ccc(-c5ccncc5)cc4)nn23)cn1 [Compound A60, [5-(1-methyl-1H-pyrazol-4-yl)-[1,2,4]triazolo[1,5-a]pyrazin-2-yl]-(4-pyridin-4-yl-phenyl)-amine] | – | 1000 to 5000 nM | < 1000 nM | –
8 | Cn1cc(-c2cncc3nc(Nc4ccc(CN5CCOCC5)cc4)nn23)cn1 [Compound A61, [5-(1-methyl-1H-pyrazol-4-yl)-[1,2,4]triazolo[1,5-a]pyrazin-2-yl]-(4-morpholin-4-ylmethyl-phenyl)-amine] | – | < 1000 nM | 1000 to 5000 nM | –
9 | c1cc(N2CCOCC2)ccc1Nc1nc2cncc(-c3ccc(CN4CCOCC4)s3)n2n1 [Compound A62, [5-(5-morpholin-4-ylmethyl-thiophen-2-yl)-[1,2,4]triazolo[1,5-a]pyrazin-2-yl]-(4-morpholin-4-yl-phenyl)-amine] | −5@3% | < 1000 nM | – | –
10 | N#Cc1cc(-c2cncc3nc(Nc4ccc(N5CCOCC5)cc4)nn23)ccc1OC1CCOCC1 [Compound A63, 5-[2-(4-morpholin-4-yl-phenylamino)-[1,2,4]triazolo[1,5-a]pyrazin-5-yl]-2-(tetrahydro-pyran-4-yloxy)-benzonitrile] | −30@3% | 1000 to 5000 nM | – | –
11 | Cc1cc(Nc2nc3cncc(-c4cnn(C)c4)n3n2)ccc1OC(F)(F)F [Compound A64, [5-(1-methyl-1H-pyrazol-4-yl)-[1,2,4]triazolo[1,5-a]pyrazin-2-yl]-(3-methyl-4-trifluoromethoxy-phenyl)-amine] | – | < 1000 nM | 1000 to 5000 nM | –
12 | Cc1cc(Nc2nc3cncc(-c4cnn(C)c4)n3n2)ccc1NC(=O)C1CCC1 [Compound A65, cyclobutanecarboxylic acid {2-methyl-4-[5-(1-methyl-1H-pyrazol-4-yl)-[1,2,4]triazolo[1,5-a]pyrazin-2-ylamino]-phenyl}-amide] | – | < 1000 nM | 5000 to 10000 nM | –
13 | Cn1cc(-c2cncc3nc(Nc4ccc(C(=O)N5CCOCC5)cc4)nn23)cn1 [Compound A66, {4-[5-(1-methyl-1H-pyrazol-4-yl)-[1,2,4]triazolo[1,5-a]pyrazin-2-ylamino]-phenyl}-morpholin-4-yl-methanone] | – | < 1000 nM | 1000 to 5000 nM | –
14 | COc1cc(Nc2nc3cncc(-c4cnn(C)c4)n3n2)ccc1N1CCN(C)CC1 [Compound A67, [3-methoxy-4-(4-methyl-piperazin-1-yl)-phenyl]-[5-(1-methyl-1H-pyrazol-4-yl)-[1,2,4]triazolo[1,5-a]pyrazin-2-yl]-amine] | – | < 1000 nM | 1000 to 5000 nM | –

Further lines, results first:

Row | SYK (enzyme assay) % at 3 μM (SYK; [1]) | IC50 (GCN2) | IC50 (SYK) | SYK (enzyme assay) % at 0.3 μM (SYK; at 0.3 μM, 100% corresponds to zero effect, −50% corresponds to IC50) | Compound
15 | – | < 1000 nM | 1000 to 5000 nM | – | Cc1cc(Nc2nc3cncc(-c4cnn(C)c4)n3n2)ccc1CN1CCOCC1 [Compound A68, (3-methyl-4-morpholin-4-ylmethyl-phenyl)-[5-(1-methyl-1H-pyrazol-4-yl)-[1,2,4]triazolo[1,5-a]pyrazin-2-yl]-amine]
16 | – | < 1000 nM | 1000 to 5000 nM | – | Cc1cc(Nc2nc3cncc(-c4cnn(C)c4)n3n2)ccc1C(=O)NCC1CC1 [Compound A69, N-cyclopropylmethyl-2-methyl-4-[5-(1-methyl-1H-pyrazol-4-yl)-[1,2,4]triazolo[1,5-a]pyrazin-2-ylamino]-benzamide]
17 | – | < 1000 nM | – | −12@0.3% | COc1cc(Nc2nc3cncc(-c4cnn(C)c4)n3n2)ccc1C(=O)NCC1CC1 [Compound A70, N-cyclopropylmethyl-2-methoxy-4-[5-(1-methyl-1H-pyrazol-4-yl)-[1,2,4]triazolo[1,5-a]pyrazin-2-ylamino]-benzamide]
18 | – | < 1000 nM | 1000 to 5000 nM | – | Cc1cc(Nc2nc3cncc(-c4cnn(C)c4)n3n2)ccc1C(=O)NC1CC1 [Compound A71, N-cyclopropyl-2-methyl-4-[5-(1-methyl-1H-pyrazol-4-yl)-[1,2,4]triazolo[1,5-a]pyrazin-2-ylamino]-benzamide]
19 | – | < 1000 nM | 5000 to 10000 nM | – | COc1cc(Nc2nc3cncc(-c4cnn(C)c4)n3n2)ccc1C(=O)NC1CC1 [Compound A72, N-cyclopropyl-2-methoxy-4-[5-(1-methyl-1H-pyrazol-4-yl)-[1,2,4]triazolo[1,5-a]pyrazin-2-ylamino]-benzamide]
20 | – | < 1000 nM | 1000 to 5000 nM | – | Cc1cc(Nc2nc3cncc(-c4cnn(C)c4)n3n2)ccc1C(=O)N1CCOCC1 [Compound A73, {2-methyl-4-[5-(1-methyl-1H-pyrazol-4-yl)-[1,2,4]triazolo[1,5-a]pyrazin-2-ylamino]-phenyl}-morpholin-4-yl-methanone]
21 | 4@3% | 5000 to 10000 nM | – | – | Cn1cc(-c2cncc3nc(NC(=O)C4CCNCC4)nn23)cn1 [Compound A74, piperidine-4-carboxylic acid [5-(1-methyl-1H-pyrazol-4-yl)-[1,2,4]triazolo[1,5-a]pyrazin-2-yl]-amide]
22 | −21@3% | < 1000 nM | – | – | COc1cc(Nc2nc3cncc(-c4cnn(CCN5CCOCC5)c4)n3n2)ccc1N1CCN(C)CC1 [Compound A75, [3-methoxy-4-(4-methyl-piperazin-1-yl)-phenyl]-{5-[1-(2-morpholin-4-yl-ethyl)-1H-pyrazol-4-yl]-[1,2,4]triazolo[1,5-a]pyrazin-2-yl}-amine]
